Results on 15 compounds are retold here after PubChem BioAssay (NCI).

SMILES strings stand for the structures.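 How tested: cells in 96-well plates exposed to compound for 48 hours at five concentrations. GI50 = concentration required for 50% inhibition of growth. The concentration for full growth arrest is given as TGI.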

Some test systems named below: A498 renal; HT29 colon; IGROV1 ovarian; MALME-3M melanoma; MOLT-4 leukemia; OVCAR-5 ovarian; SK-MEL-2 melanoma; SR leukemia; UACC-62 melanoma; HS 578T breast.
Common to all, as to assay: NCI anticancer screen, dose series, 48 h

Consider `CCOC(=O)C(=O)C=P(c1ccccc1)(c1ccccc1)c1ccccc1`, for which the TGI in the test with A498 renal, with HT29 colon, in the test with IGROV1 ovarian, in the test with MALME-3M melanoma, in the test on MOLT-4 leukemia and with OVCAR-5 ovarian was over 100 µM throughout. Moreover, the TGI in the test on SK-MEL-2 melanoma, with SR leukemia and in the test on UACC-62 melanoma was over 100 µM in each case.
For `CCOC(=O)Cn1c2ccccc2c(=O)c2cc(C)c(C)c(C#N)c21`, the TGI in the test on HT29 colon, in the test on IGROV1 ovarian, with MALME-3M melanoma, in the test with MOLT-4 leukemia, in the test on OVCAR-5 ovarian and in the test on SK-MEL-2 melanoma was over 100 µM in each case. Besides, the TGI in the test with SR leukemia and in the test with UACC-62 melanoma was over 100 µM in each case.
Regarding `Cc1c(C)c(C)c(Cn2[nH]c(=O)n(C)c2=O)c(C)c1C`, the TGI with A498 renal, in the test on HS 578T breast, with HT29 colon, in the test with IGROV1 ovarian, with MALME-3M melanoma and in the test with MOLT-4 leukemia was over 100 µM in each case. Moreover, the TGI with SK-MEL-2 melanoma and in the test on UACC-62 melanoma was over 100 µM in each case.
As to `CC(CCC[C@H](C)CO)[C@H]1[C@@H](O)C(O)C2[C@@H]3C[C@@H](O)C4(O)C[C@@H](O)CC[C@]4(C)C3CC[C@@]21C` (some centres not stated), the TGI with HT29 colon, in the test with IGROV1 ovarian, in the test with MALME-3M melanoma, in the test with MOLT-4 leukemia, in the test with SK-MEL-2 melanoma and in the test with SR leukemia was over 100 µM each time. This compound came in with a TGI in the test with UACC-62 melanoma of over 100 µM.
As for `NCCSc1cc(O)c2c(c1N)C(=O)c1ccccc1C2=O`, the TGI is over 100 µM with A498 renal; over 100 µM in the test on HT29 colon; 65.9 µM with IGROV1 ovarian; 75.5 µM in the test on MALME-3M melanoma; 63.8 µM in the test with MOLT-4 leukemia; over 100 µM with OVCAR-5 ovarian. The TGI was over 100 µM with SK-MEL-2 melanoma, 73.4 µM in the test with SR leukemia and over 100 µM in the test on UACC-62 melanoma.
`COc1cc(C)c(/C=C2/N=C(c3ccccc3)OC2=O)c([N+](=O)[O-])c1OC`: the TGI with A498 renal, in the test on HT29 colon, with IGROV1 ovarian, in the test with MALME-3M melanoma, with MOLT-4 leukemia and with OVCAR-5 ovarian was over 100 µM each time. Also, the TGI in the test on SK-MEL-2 melanoma and in the test with UACC-62 melanoma was over 100 µM throughout.
As to `CC1CN=C(NS(=O)(=O)c2cc(C(=O)Nc3ccc(Cl)cc3)c(Cl)cc2S)NN1` (configuration not stated), the TGI is 37.1 µM with A498 renal; over 100 µM in the test with HT29 colon; over 100 µM in the test with IGROV1 ovarian; 39.1 µM in the test on MALME-3M melanoma; over 100 µM in the test with MOLT-4 leukemia; over 100 µM in the test with OVCAR-5 ovarian. For the same compound, the TGI was 71.2 µM in the test with SK-MEL-2 melanoma, over 100 µM in the test with SR leukemia and 84.1 µM in the test on UACC-62 melanoma.
With `COc1c(C)cc2c(C(C)C)c(O)c(O)c(C=O)c2c1O`, the TGI in the test on HT29 colon was 47.1 µM; in the test with IGROV1 ovarian, over 100 µM; in the test on MALME-3M melanoma, 38.7 µM; in the test on MOLT-4 leukemia it was over 100 µM; in the test with OVCAR-5 ovarian, 86 µM; in the test with SK-MEL-2 melanoma it was 37.1 µM. The compound also showed a TGI in the test with UACC-62 melanoma of 47.5 µM.
Take `CC1(C)[C@@H]2C[C@H]1[C@@H](Cc1cccc(C[C@H]3c4cc(-c5ccccn5)ncc4[C@H]4C[C@@H]3C4(C)C)c1)c1cc(-c3ccccn3)ncc12`: the TGI is over 93.2 µM in the test on A498 renal; over 100 µM in the test on HT29 colon; over 53.3 µM in the test with IGROV1 ovarian; 8.14 µM in the test with MALME-3M melanoma; over 100 µM in the test on MOLT-4 leukemia; over 100 µM in the test with OVCAR-5 ovarian. The TGI in the test on SK-MEL-2 melanoma, in the test with SR leukemia and in the test with UACC-62 melanoma was over 100 µM throughout. Further, the GI50 in the test on HT29 colon was 12.5 µM; in the test on MALME-3M melanoma, 1.78 µM; in the test on SR leukemia it was over 100 µM.
With `C1CSCCSCCCSC2CCCCC2SC1` (configuration not stated), the TGI in the test with HT29 colon is 60.9 µM; in the test with IGROV1 ovarian, over 100 µM; with MOLT-4 leukemia it was over 100 µM; in the test with OVCAR-5 ovarian, over 100 µM; in the test with SR leukemia, over 100 µM; with UACC-62 melanoma, over 100 µM.
Turning to `Clc1cccc(-c2sc(-c3ccsc3)cc2Cc2ccsc2)c1`, the TGI with HT29 colon, in the test on IGROV1 ovarian, in the test on MALME-3M melanoma, in the test on MOLT-4 leukemia, with SR leukemia and in the test on UACC-62 melanoma was over 10 µM in each case.
Turning to `S=C1NC2=C(COc3ccccc32)C(c2ccc(Cl)cc2)N1` (configuration not stated), the TGI in the test with A498 renal was found to be 39.1 µM; in the test on HS 578T breast, 50.4 µM; in the test with HT29 colon, 31.7 µM; with IGROV1 ovarian, 31.6 µM; with MOLT-4 leukemia, 38.7 µM; in the test with OVCAR-5 ovarian it was 30.7 µM. The TGI in the test with SK-MEL-2 melanoma stood at 29 µM; in the test with UACC-62 melanoma, 34.7 µM.
Turning to `CC1(C)[C@@H]2CC[C@]1(C)[C@H](OC(=O)/C=C/c1ccccc1)C2`, the TGI was 32.3 µM in the test on A498 renal; 41.7 µM in the test on HS 578T breast; 33.7 µM with HT29 colon; 51.8 µM with IGROV1 ovarian; 38.5 µM in the test on MALME-3M melanoma; 39.1 µM with OVCAR-5 ovarian. Further, the TGI in the test on SK-MEL-2 melanoma came out at 35 µM; in the test on UACC-62 melanoma it was 57.5 µM.
With `N#CCc1c(-c2ccccc2)n(S(=O)(=O)c2ccccc2)c2ccccc12`, the TGI with HT29 colon, with IGROV1 ovarian, in the test with MALME-3M melanoma, in the test with MOLT-4 leukemia, in the test with OVCAR-5 ovarian and with SK-MEL-2 melanoma was over 100 µM throughout. Further, the TGI in the test on SR leukemia and in the test with UACC-62 melanoma was over 100 µM throughout.
Take `COC(=O)c1cc(C(=O)OC)c(CC(=O)C(=O)NC2C3CC4CC(C3)CC2C4)nc1CC(=O)C(=O)NC1C2CC3CC(C2)CC1C3` (configuration not stated): the TGI with A498 renal, with HT29 colon, in the test on IGROV1 ovarian, in the test on MALME-3M melanoma, in the test with MOLT-4 leukemia and in the test with OVCAR-5 ovarian was over 100 µM in each case. The TGI in the test with SK-MEL-2 melanoma, in the test with SR leukemia and in the test on UACC-62 melanoma was over 100 µM each time.
